From the Deep4Chem optical property database
Blank lines part the entries; values can stand above or below the molecule they belong to.

Assay: solvent given as SMILES

SMILES: N#Cc1ccc2c(c1)CCc1nc(-c3ccc([N+](=O)[O-])cc3)c3c(c1-2)CCc1cc(C#N)ccc1-3
- fluorescence lifetime (in C1CCOC1): 1.36 ns
- fluorescence lifetime (in CC#N): 1.11 ns
- fluorescence lifetime (in CCCCCC): 0.64 ns
- fluorescence lifetime (in CCOC(C)=O): 1.11 ns
- fluorescence lifetime (in CO): 0.84 ns
- fluorescence lifetime (in CS(C)=O): 1.24 ns
- fluorescence lifetime (in Cc1ccccc1): 0.88 ns
- fluorescence lifetime (in ClCCl): 1.46 ns

SMILES: CN(C)CCCN1c2ccccc2Sc2ccccc21
- fluorescence lifetime (in CC#N): 1.85 ns
- fluorescence lifetime (in CO): 1.75 ns
- fluorescence lifetime (in O): 2.04 ns

SMILES: Oc1ccc2ccc(C3(O)C4CC5CC(C4)CC3C5)cc2c1 (configuration not stated)
- fluorescence lifetime (in CC#N): 7.78 ns

SMILES: CC1(C)c2ccccc2N(c2ccc(C(=CC#N)c3ccc(N4c5ccccc5C(C)(C)c5ccccc54)cc3)cc2)c2ccccc21
- fluorescence lifetime (in Cc1ccccc1): 5.09 ns

SMILES: O=c1c2cc(Cl)ccc2[nH]c2ccc(COO)cc12
- fluorescence lifetime (in O): 16.8 ns

SMILES: COc1cc2c(cc1/C=C/C(=C(C#N)C#N)c1ccccc1)c1ccccc1n2C
- fluorescence lifetime (in C1CCOC1): 7.35 ns
- fluorescence lifetime (in CC#N): 7.64 ns
- fluorescence lifetime (in CCO): 5.52 ns
- fluorescence lifetime (in CCOC(C)=O): 6.74 ns
- fluorescence lifetime (in CN(C)C=O): 7.2 ns
- fluorescence lifetime (in CS(C)=O): 9.07 ns
- fluorescence lifetime (in Cc1ccccc1): 7.98 ns
- fluorescence lifetime (in ClC(Cl)Cl): 8.11 ns
- fluorescence lifetime (in ClCCl): 6.44 ns

SMILES: CCCn1c2cccc3c2[c+]2c4c1cccc4n(CCC)c1cccc(c12)n3CCC
- fluorescence lifetime (in CC#N): 7.5 ns
- fluorescence lifetime (in CO): 9.9 ns
- fluorescence lifetime (in ClCCl): 6.3 ns
- fluorescence lifetime (in OCC(O)CO): 11 ns

SMILES: COC(=O)c1cc(=O)n(C)c2cc(-c3ccc(N4CCN(C)CC4)cc3)sc12
- fluorescence lifetime (in ClCCl): 1.5 ns

SMILES: Nc1ncc2nc[nH]c2n1
- fluorescence lifetime (in O): 11.3 ns

SMILES: COc1ccc(-c2csc(/C(C#N)=C/c3ccccc3Cl)n2)cc1
- fluorescence lifetime (in CC#N): 3.93 ns

SMILES: Cn1c(=O)c(/N=N/c2cc(S(=O)(=O)O)ccc2C(=O)O)c(O)c2ccccc21
- fluorescence lifetime (in CS(C)=O): 0.06 ns

SMILES: COC(=O)C[C@H](Cc1c[nH]c2ccccc12)NC(=O)[C@H](CC(=O)N[C@@H](CC1=CCc2ccccc21)C(=O)OC)NC(=O)[C@H](Cc1c[nH]c2ccccc12)NC(=O)OC(C)(C)C
- fluorescence lifetime (in CC#N): 2.67 ns
- fluorescence lifetime (in CCOC(C)=O): 2.08 ns
- fluorescence lifetime (in CO): 1.86 ns

SMILES: CCOC(=O)CN1C(=O)C2=C(c3ccc(C#N)cc3)N(CC(=O)OCC)C(=O)C2=C1c1ccccc1
- fluorescence lifetime (in CC#N): 5.78 ns
- fluorescence lifetime (in CS(C)=O): 7.07 ns
- fluorescence lifetime (in Cc1ccccc1): 4.24 ns

SMILES: COC(=O)c1noc(-c2ccccc2)c1Cl
- fluorescence lifetime (in C1CCCCC1): 0.67 ns

SMILES: CC1=N/C(=C\c2ccc(C#N)c(N(C)C)c2)C(=O)N1C
- fluorescence lifetime (in C1CCOC1): 6.8 ns
- fluorescence lifetime (in CC#N): 3.5 ns
- fluorescence lifetime (in CCCCCC): 16 ns

SMILES: CCNc1cc2oc(=O)cc(C(F)(F)F)c2cc1C
- fluorescence lifetime (in CC#N): 7.7 ns

SMILES: O=C1c2ccccc2-c2ccc(N3CCOCC3)c3cccc1c23
- fluorescence lifetime (in ClC(Cl)Cl): 10.9 ns

SMILES: Nc1ccc2c3c(cccc13)C(=O)c1ccccc1-2
- fluorescence lifetime (in CC#N): 5.9 ns
- fluorescence lifetime (in CC(C)=O): 6.9 ns
- fluorescence lifetime (in CC(C)O): 2 ns
- fluorescence lifetime (in CCCCOCCCC): 9.2 ns
- fluorescence lifetime (in CCOC(C)=O): 7.1 ns
- fluorescence lifetime (in CCOCC): 9.5 ns
- fluorescence lifetime (in CO): 1.5 ns
- fluorescence lifetime (in Cc1ccccc1): 9.2 ns
- fluorescence lifetime (in Clc1ccccc1): 8.6 ns
- fluorescence lifetime (in N#Cc1ccccc1): 7.5 ns
- fluorescence lifetime (in O=C1CCCCC1): 7.8 ns

SMILES: Cn1cccc1-c1ccc(C#N)cc1
- fluorescence lifetime (in CC#N): 5.4 ns
- fluorescence lifetime (in CCCCCC): 1.8 ns
- fluorescence lifetime (in CCOCC): 5.21 ns

SMILES: N#Cc1c(-n2c3ccc(Br)cc3c3cc(Br)ccc32)c(-n2c3ccc(Br)cc3c3cc(Br)ccc32)c(C#N)c(-n2c3ccc(Br)cc3c3cc(Br)ccc32)c1-n1c2ccc(Br)cc2c2cc(Br)ccc21
- fluorescence lifetime (in Cc1ccccc1): 0.3 ns

SMILES: COc1ccc(-c2cc3c(s2)c(-c2ccccc2)cc(=O)n3C)cc1
- fluorescence lifetime (in ClCCl): 4.69 ns

SMILES: CC1(C)c2ccccc2N(c2ccc3c(c2)c2cc(N4c5ccccc5C(C)(C)c5ccccc54)ccc2c2nc(C#N)c(C#N)nc32)c2ccccc21
- fluorescence lifetime (in O=P(c1ccccc1)(c1ccccc1)c1cccc(-c2cc(-n3c4ccccc4c4ccccc43)cc(-n3c4ccccc4c4ccccc43)c2)n1): 53.7 ns

SMILES: FC(F)(F)c1ccc(/C=C/c2ccc(-c3nnc(-c4ccc(-c5cc6ccccc6s5)cc4)o3)cc2)cc1
- fluorescence lifetime (in Cc1ccccc1): 0.57 ns
- fluorescence lifetime (in ClC(Cl)Cl): 0.7 ns

SMILES: CCOC(=O)C1=CN(Cc2ccccc2)C=C(C(=O)OCC)C1
- fluorescence lifetime (in C1CCOC1): 25.6 ns
- fluorescence lifetime (in CO): 28.2 ns

SMILES: COc1ccc(C2=Nc3cccc4[n+]3[B-](F)(O2)OC(c2ccc(OC)cc2)=N4)cc1
- fluorescence lifetime (in ClCCl): 1.8 ns

SMILES: CCN(CC)c1ccc(/N=N/c2nc3ccc(Br)cc3s2)cc1
- fluorescence lifetime (in CC#N): 3.03 ns
- fluorescence lifetime (in ClCCl): 2.75 ns

SMILES: c1ccc(-c2nc(-c3ccccc3)nc(-c3ccc(-n4c5ccccc5c5c6c(ccc54)C4(c5ccccc5-c5ccccc54)c4ccccc4-6)cc3)n2)cc1
- fluorescence lifetime (in O=P(c1ccccc1)(c1ccccc1)c1ccccc1Oc1ccccc1P(=O)(c1ccccc1)c1ccccc1): 11.1 ns

SMILES: CCCCCn1c2ccccc2c(=O)c2ccccc21
- fluorescence lifetime (in CS(C)=O): 8.1 ns

SMILES: COC(=O)C(Cc1ccc2oc(-c3ccc4c(c3)c3ccccc3n4-c3ccccc3)nc2c1)NC(=O)OC(C)(C)C (configuration not stated)
- fluorescence lifetime (in C1CCCCC1): 2.29 ns
- fluorescence lifetime (in C1CCOC1): 1.73 ns
- fluorescence lifetime (in C1COCCO1): 1.96 ns
- fluorescence lifetime (in CC1CCCO1): 1.83 ns
- fluorescence lifetime (in CC1COC(=O)O1): 1.83 ns
- fluorescence lifetime (in CC#N): 1.77 ns
- fluorescence lifetime (in CC(C)=O): 1.75 ns
- fluorescence lifetime (in CC(C)CC(C)(C)C): 2.22 ns
- fluorescence lifetime (in CC(C)CO): 1.55 ns
- fluorescence lifetime (in CC(C)O): 1.57 ns
- fluorescence lifetime (in CC(C)OC(C)C): 1.66 ns
- fluorescence lifetime (in CC(O)CO): 1.74 ns
- fluorescence lifetime (in CCC(C)CC): 2.25 ns
- fluorescence lifetime (in CCCCC): 2.66 ns
- fluorescence lifetime (in CCCCCC): 2.23 ns
- fluorescence lifetime (in CCCCCCCCC): 2.3 ns
- fluorescence lifetime (in CCCCCCCCCC): 2.33 ns
- fluorescence lifetime (in CCCCCCCO): 1.55 ns
- fluorescence lifetime (in CCCCCCO): 1.56 ns
- fluorescence lifetime (in CCCCCO): 1.54 ns
- fluorescence lifetime (in CCCCO): 1.54 ns
- fluorescence lifetime (in CCO): 1.66 ns
- fluorescence lifetime (in CCOC(C)=O): 1.87 ns
- fluorescence lifetime (in CCOCC): 2.13 ns
- fluorescence lifetime (in CN(C)C=O): 1.73 ns
- fluorescence lifetime (in CO): 1.72 ns
- fluorescence lifetime (in COCCOC): 1.2 ns
- fluorescence lifetime (in CS(C)=O): 1.69 ns
- fluorescence lifetime (in Cc1ccccc1): 1.66 ns
- fluorescence lifetime (in Cc1ccccc1C): 1.76 ns
- fluorescence lifetime (in ClC(Cl)Cl): 1.32 ns
- fluorescence lifetime (in ClCCl): 1.5 ns
- fluorescence lifetime (in NC=O): 1.86 ns
- fluorescence lifetime (in OC1CCCCC1): 1.58 ns
- fluorescence lifetime (in OCCO): 1.84 ns
- fluorescence lifetime (in c1ccccc1): 1.67 ns

SMILES: CCN(CC)c1ccc2cc(/C=C/C(=C(C#N)C#N)c3ccc(N(c4ccccc4)c4ccccc4)cc3)c(=O)oc2c1
- fluorescence lifetime (in CC(C)=O): 0.59 ns
- fluorescence lifetime (in CCOC(C)=O): 1.31 ns
- fluorescence lifetime (in CN(C)C=O): 0.33 ns
- fluorescence lifetime (in CS(C)=O): 0.33 ns
- fluorescence lifetime (in Cc1ccccc1): 0.84 ns
- fluorescence lifetime (in ClCCl): 2.88 ns

SMILES: CN(C)c1ccc(C2=Nc3scc(-c4ccc(C#N)cc4)[n+]3[B-](F)(F)O2)cc1
- fluorescence lifetime (in C1CCOC1): 1.69 ns

SMILES: CCN(CC)c1ccc2cc(C#N)c(=N)oc2c1
- fluorescence lifetime (in ClCCl): 2.9 ns

SMILES: CC(=O)O[B-]1(OC(C)=O)OC(/C=C/C=C/c2ccccc2)=CC(/C=C/C=C/c2ccccc2)=[O+]1
- fluorescence lifetime (in C1CCOC1): 2.38 ns
- fluorescence lifetime (in CC#N): 1.81 ns
- fluorescence lifetime (in CC(C)=O): 1.77 ns
- fluorescence lifetime (in CS(C)=O): 2.03 ns
- fluorescence lifetime (in Cc1ccccc1): 2.57 ns
- fluorescence lifetime (in ClC(Cl)Cl): 1.93 ns
- fluorescence lifetime (in ClCCl): 1.84 ns

SMILES: CNc1ccc(/C=C/C#N)cc1
- fluorescence lifetime (in C1CCCCC1): 0.6 ns
- fluorescence lifetime (in CC#N): 0.6 ns
- fluorescence lifetime (in O): 1.13 ns

Results, then the molecule that gave them:

- fluorescence lifetime (in C1CCCCC1): 0.75 ns
- fluorescence lifetime (in CC#N): 0.84 ns
SMILES: FC(F)(F)c1ccc(/C=C/c2nc3c(ccc4ccccc43)s2)cc1

- fluorescence lifetime (in ClCCl): 1.09 ns
SMILES: CCCCCc1c(C(=O)c2ccc3c4c(cccc24)-c2cccc4c2C3CC=C4)c2ccc3cccc4c5cccc6ccc1c(c65)c2c34 (configuration not stated)

- fluorescence lifetime (in CC#N): 4.97 ns
SMILES: C[n+]1ccn(CCCCc2ccc3c(c2)c2ccccc2n3-c2cc(C#N)c(C#N)cc2-n2c3ccccc3c3cc(CCCCn4cc[n+](C)c4)ccc32)c1

- fluorescence lifetime (in CS(C)=O): 1.36 ns
SMILES: c1cnc2c(c1)c1nc(-c3ccc(-c4nc5c6cccnc6c6ncccc6c5[nH]4)cc3)[nH]c1c1cccnc12

- fluorescence lifetime (in ClC(Cl)Cl): 1.1 ns
SMILES: C(#Cc1ccccc1)C(C#Cc1ccccc1)=Cc1ccc2cc(C=C(C#Cc3ccccc3)C#Cc3ccccc3)ccc2c1

- fluorescence lifetime (in N#Cc1ccc2c(c1)c1ccccc1n2-c1cccc(-n2c3ccccc3c3ccccc32)c1): 15.7 ns
SMILES: CC1(C)c2ccccc2N(c2ccc(-c3cnc(C#N)nc3)cc2)c2ccccc21

- fluorescence lifetime (in ClCCl): 0.89 ns
SMILES: Brc1cc(/C=C/c2ccc(N(c3ccccc3)c3ccccc3)cc2)c(Br)cc1/C=C/c1ccc(N(c2ccccc2)c2ccccc2)cc1

- fluorescence lifetime (in ClC(Cl)Cl): 0.38 ns
SMILES: CC1=CC(C)=[N+]2C1=C(c1ccc(I)cc1)c1c(C)cc(C)n1[B-]2(Oc1ccccc1)Oc1ccccc1

- fluorescence lifetime (in ClC(Cl)Cl): 4 ns
SMILES: Cc1ccc(/C2=c3\cc/c(o3)=C(\c3ccc(C)cc3)c3ccc([nH]3)-c3ccc4n3[P-](=O)(=O)[N+]3=C(C=CC3=C4c3ccc[nH]3)c3ccc2[nH]3)cc1

- fluorescence lifetime (in C1CCOC1): 9.21 ns
SMILES: CCN(CC)c1ccc(-c2nc3c4ccccc4n(C)c3nc2-c2ccc(B(c3c(C)cc(C)cc3C)c3c(C)cc(C)cc3C)cc2)cc1

- fluorescence lifetime (in ClCCl): 5.5 ns
SMILES: Fc1ccc(N(c2ccccc2)c2ccc3ccc4c(N(c5ccccc5)c5ccc(F)cc5)ccc5ccc2c3c54)cc1

- fluorescence lifetime (in ClCCl): 3.02 ns
SMILES: ClP1(Cl)=N[P@](Cl)(Oc2ccc3ccc4cccc5ccc2c3c45)=N[P@@](Cl)(Oc2ccc3ccc4cccc5ccc2c3c45)=N1

- fluorescence lifetime (in C1CCOC1): 1 ns
SMILES: N#C/C(=C\c1ccc(C=C(c2ccccc2)c2ccccc2)cc1)c1ccccc1

- fluorescence lifetime (in ClCCl): 2.02 ns
SMILES: ClP1(Cl)=N[P@@](Cl)(Oc2ccc3ccc4cccc5ccc2c3c45)=N[P@@](Cl)(Oc2ccc3ccc4cccc5ccc2c3c45)=N1

- fluorescence lifetime (in ClCCl): 12.9 ns
SMILES: O=P1(c2ccccc2)C2=C(c3ccccc31)S(=O)(=O)c1ccccc12 (configuration not stated)

- fluorescence lifetime (in ClCCl): 0.99 ns
SMILES: CCCCn1c(-c2ccc(-c3nnc(-c4ccc(-c5nc6ccccc6n5CCCC)cc4)o3)cc2)nc2ccccc21

- fluorescence lifetime (in ClCCl): 10.8 ns
SMILES: COc1ccc(-c2c3cc4cc(C)sc4cc3c(C#Cc3ccccc3)c3cc4cc(C)sc4cc23)cc1

- fluorescence lifetime (in ClCCl): 1.76 ns
SMILES: CCCCn1c(-c2ccc(-c3nnc(-c4cccs4)o3)cc2)nc2c3ccccc3c3ccccc3c21
